The source of these data is ChEMBL document CHEMBL1201862, “PubChem BioAssay data set” (2004).

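Protocol summary: plate cells (96-well), add compound at 5 concentrations, incubate 48 h, interpolate endpoints linearly. GI50 is the concentration that inhibits growth by half.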 Calls of active or inactive are those of the source. No stated cut-off is given here; in the data, active = GI50 up to about 1.1 µM and inactive = higher.

Among the test systems are A498; CAKI-1; CCRF-CEM; HCT-116; HCT-15; HOP-62; HT-29; IGROV-1; KM12; Malme-3M; SNB-19; SR; TK-10; UACC-62; UO-31; Hs-578T; M14; NCI/ADR-RES; PC-3; MDA-N.
What all share (test): NCI-60 cell line screen, 48 h

Regarding `Clc1ccc2nc(-c3ccccc3)nc(Cl)c2c1`, the GI50 in the assay on A498 is > 100 µM (inactive); with CAKI-1 it was 21.1 µM (inactive); in the assay with CCRF-CEM it was 38.6 µM (inactive); in the assay with HCT-116, 73.6 µM (inactive); with HCT-15, over 100 µM; with HOP-62, 23.9 µM (inactive). The GI50 with HT-29 is > 100 µM (inactive); with IGROV-1, > 100 µM (inactive); with KM12, > 100 µM (inactive); in the assay with Malme-3M, 24.2 µM (inactive); in the assay on SNB-19, 69.2 µM (inactive); with SR, > 100 µM (inactive). Further, the GI50 was 21.7 µM (inactive) in the assay on TK-10, 49.8 µM (inactive) with UACC-62 and > 100 µM (inactive) in the assay with UO-31.
Turning to `SCc1ccc(-c2ccc(CS)cc2)cc1`, the GI50 in the assay on A498 is 36.5 µM (inactive); in the assay with CAKI-1, 4.42 µM (inactive); with CCRF-CEM it was 1.43 µM (inactive); with HCT-116 it was 7.55 µM (inactive); in the assay on HCT-15 it was 17.6 µM; in the assay on HOP-62, 6.75 µM (inactive). The GI50 is 26.9 µM (inactive) in the assay with HT-29; 3.98 µM (inactive) in the assay with Hs-578T; 13.5 µM (inactive) in the assay with IGROV-1; 3.11 µM (inactive) with KM12; 14.3 µM (inactive) in the assay with M14; 16.9 µM (inactive) in the assay with Malme-3M. Moreover, the GI50 with NCI/ADR-RES was 7.16 µM (inactive); in the assay with PC-3 it was 17.4 µM (inactive); with SNB-19, 18.3 µM (inactive); with SR it was 2.42 µM (inactive); in the assay on TK-10, 24.3 µM (inactive); with UACC-62 it was 14.9 µM (inactive). Further, the GI50 with UO-31 was 18.4 µM (inactive).
`Cc1cccc(C)c1NC(=O)C(=O)C(C#N)c1ccccc1Cl` (centres undefined): the GI50 in the assay with A498 is > 100 µM (inactive); in the assay on CAKI-1, > 100 µM (inactive); with CCRF-CEM it was > 100 µM (inactive); in the assay with HCT-116, > 100 µM (inactive); in the assay with HCT-15 it was over 100 µM; in the assay with HOP-62, > 100 µM (inactive). Also, the GI50 with HT-29, in the assay with IGROV-1, with KM12, in the assay with M14, in the assay on Malme-3M and in the assay on SNB-19 was > 100 µM (inactive) in each case. Also, the GI50 with SR, in the assay with TK-10, with UACC-62 and in the assay on UO-31 was > 100 µM (inactive) each time.
Consider `COc1ccc2[nH]c3c(C)c4c(c(C)c3c2c1)CN(C)CC4`, for which the GI50 was 17.9 µM (inactive) in the assay on A498; 18.5 µM (inactive) in the assay with CAKI-1; 3.22 µM (inactive) in the assay on CCRF-CEM; 3.17 µM (inactive) with HCT-116; 16.1 µM in the assay on HCT-15; 17.3 µM (inactive) in the assay on HOP-62. Also, the GI50 is 6.47 µM (inactive) with HT-29; 16.6 µM (inactive) in the assay with IGROV-1; 13.9 µM (inactive) in the assay with KM12; 16.3 µM (inactive) in the assay on M14; 19.8 µM (inactive) in the assay on Malme-3M; 17.3 µM (inactive) with SNB-19. In addition, the GI50 in the assay on SR is 23.4 µM (inactive); in the assay on TK-10, 23.4 µM (inactive); in the assay with UACC-62 it was 19.2 µM (inactive); with UO-31, 16.4 µM (inactive).
Regarding `Cc1ccc(-c2c(C#N)c(S)n(NS(=O)(=O)c3ccccc3)c(=O)c2C#N)cc1`, the GI50 was 21.2 µM (inactive) in the assay on A498; 31.9 µM (inactive) in the assay with CAKI-1; 9.1 µM (inactive) in the assay on CCRF-CEM; 26.9 µM (inactive) in the assay with HCT-116; 21.7 µM with HCT-15; 23.7 µM (inactive) in the assay with IGROV-1. For the same molecule, the GI50 was 28 µM (inactive) with KM12; 29.9 µM (inactive) in the assay with M14; 29.7 µM (inactive) with MDA-N; 35.7 µM (inactive) in the assay with Malme-3M; 13.2 µM (inactive) with NCI/ADR-RES; 23.5 µM (inactive) with PC-3. For the same molecule, the GI50 in the assay with SNB-19 was 31.5 µM (inactive); in the assay with SR, 15.1 µM (inactive); with TK-10 it was 21.4 µM (inactive); with UACC-62, 23.9 µM (inactive); in the assay with UO-31, 20.1 µM (inactive).
As to `CCS(CC)(CC)CC1CCCC2=CCC(P(=O)(c3ccccc3)c3ccccc3)CC21` (centres undefined), the GI50 is 13.6 µM (inactive) in the assay on A498; 10 µM (inactive) in the assay on CAKI-1; 6.78 µM (inactive) in the assay with CCRF-CEM; 7.36 µM (inactive) in the assay on HCT-116; 8.26 µM in the assay on HCT-15; 16.3 µM (inactive) in the assay with HOP-62. The GI50 is 9.12 µM (inactive) in the assay on HT-29; 9.57 µM (inactive) in the assay on IGROV-1; 11.4 µM (inactive) in the assay on KM12; 12.2 µM (inactive) with M14; 18.4 µM (inactive) in the assay on Malme-3M; 12.9 µM (inactive) in the assay with SNB-19. The GI50 was 6.27 µM (inactive) in the assay with SR, 12.7 µM (inactive) in the assay with TK-10, 3.01 µM (inactive) in the assay on UACC-62 and 6.32 µM (inactive) in the assay with UO-31.
Turning to `COc1ccc2cccc(C(=N)c3ccc(C)c4c3CCC4)c2c1`, the GI50 in the assay on A498 was 2.14 µM (inactive); in the assay with CAKI-1, 3.95 µM (inactive); in the assay on CCRF-CEM, 6.58 µM (inactive); with HCT-116, 4.59 µM (inactive); with HCT-15, 7.46 µM; with HOP-62, 7.26 µM (inactive). Besides, the GI50 is 4.02 µM (inactive) in the assay on HT-29; 6.15 µM (inactive) in the assay on IGROV-1; 10.2 µM (inactive) in the assay with KM12; 5.97 µM (inactive) in the assay with M14; 3.62 µM (inactive) with Malme-3M; 11.2 µM (inactive) in the assay on SNB-19. Also, the GI50 is 2.62 µM (inactive) in the assay on SR, 11.6 µM (inactive) in the assay with TK-10, 4.18 µM (inactive) with UACC-62 and 4.45 µM (inactive) in the assay with UO-31.
As for `Oc1ccc([Te]CCNCC[Te]c2ccc(O)cc2)cc1`, the GI50 with A498 is 13.4 µM (inactive); with CAKI-1, 30.5 µM (inactive); with CCRF-CEM, 2.97 µM (inactive); in the assay on HCT-116, 5.96 µM (inactive); in the assay on HOP-62 it was 18.2 µM (inactive); with HT-29, 15.6 µM (inactive). Besides, the GI50 in the assay with IGROV-1 was 27.9 µM (inactive); in the assay on KM12, 15 µM (inactive); in the assay on M14, 17.6 µM (inactive); with Malme-3M, 22.6 µM (inactive); with SNB-19, 40.9 µM (inactive); in the assay on SR, 5.19 µM (inactive). In addition, the figures for the GI50 in the assay with TK-10, with UACC-62 and in the assay on UO-31 were 30.3 µM (inactive), 17 µM (inactive) and 9.2 µM (inactive), respectively.
For `N[C@H](COCc1ccccc1)c1ccccc1`, the GI50 with A498 was 32.4 µM (inactive); in the assay with CAKI-1, 23.7 µM (inactive); in the assay on CCRF-CEM, 23.8 µM (inactive); in the assay with HCT-116, 22.5 µM (inactive); with HCT-15 it was over 50.5 µM; in the assay on HOP-62, > 46.5 µM (inactive). The GI50 with HT-29 was 28.8 µM (inactive); with IGROV-1, 39 µM (inactive); with KM12, 27.4 µM (inactive); with M14, 23.1 µM (inactive); in the assay on Malme-3M it was 33.4 µM (inactive); in the assay with SNB-19, 30.6 µM (inactive). Besides, the GI50 in the assay with SR was 23.3 µM (inactive); with TK-10 it was 32.1 µM (inactive); with UACC-62, 32.1 µM (inactive); in the assay with UO-31 it was 30.3 µM (inactive).
Consider `CC(C)(C=O)CC(C#N)/C(=N\NC(N)=O)C(=O)Nc1ccccc1C(N)=O` (centres undefined), for which the GI50 was > 100 µM (inactive) with A498; > 100 µM (inactive) in the assay on CAKI-1; > 100 µM (inactive) in the assay on CCRF-CEM; > 100 µM (inactive) in the assay with HCT-116; over 100 µM in the assay on HCT-15; > 100 µM (inactive) with HOP-62. The GI50 with HT-29, in the assay with IGROV-1, in the assay on KM12, in the assay on M14, in the assay with Malme-3M and with SNB-19 was > 100 µM (inactive) each time. Moreover, the GI50 in the assay with SR, in the assay with TK-10, in the assay on UACC-62 and in the assay with UO-31 was > 100 µM (inactive) in each case.
Turning to `Cc1nc(-n2nc(-c3ccccc3)cc2-c2ccccc2)sc1C(=O)CC(=O)C(=O)Nc1ccc(O)cc1`, the GI50 with A498 was > 100 µM (inactive); with CAKI-1, > 100 µM (inactive); in the assay on CCRF-CEM it was > 100 µM (inactive); in the assay with HCT-116, > 100 µM (inactive); in the assay on HCT-15 it was over 100 µM; with HOP-62, > 100 µM (inactive). Also, the GI50 in the assay with HT-29, with IGROV-1, in the assay on KM12, in the assay on M14, in the assay on Malme-3M and in the assay on SNB-19 was > 100 µM (inactive) throughout. For the same molecule, the GI50 in the assay on SR, in the assay with TK-10, with UACC-62 and in the assay on UO-31 was > 100 µM (inactive) throughout.
Take `COc1cc2ccnc3c2c(c1OC)-c1coc(SC)c1-3`: the GI50 is 19.5 µM (inactive) in the assay with A498; 20.8 µM (inactive) in the assay on CAKI-1; > 10 µM (inactive) in the assay with CCRF-CEM; 52.8 µM (inactive) in the assay with HCT-116; over 100 µM in the assay on HCT-15; 54.8 µM (inactive) in the assay with HOP-62. For the same molecule, the GI50 was 94.8 µM (inactive) with HT-29; > 100 µM (inactive) in the assay with IGROV-1; > 100 µM (inactive) in the assay on KM12; > 100 µM (inactive) in the assay with M14; > 100 µM (inactive) in the assay with Malme-3M; > 100 µM (inactive) in the assay with SNB-19. For the same molecule, the GI50 with SR is 40.2 µM (inactive); in the assay on TK-10, > 100 µM (inactive); in the assay with UACC-62, 86.1 µM (inactive); with UO-31 it was 26.4 µM (inactive).
